Laboratory results as given in patent US20230203471A1, “METHOD AND PLATFORM FOR DISRUPTING INTRACELLULAR MICROTUBULES” (National Tsing Hua University, priority 2021, published 2023).

What was measured:
[1] = system: intracellular microtubules in HeLa cells; experiment: Live-cell imaging of MT disruption (MT filament area) in transfected HeLa cells; format: cell-based
Protocol: The procedures of live-cell imaging are as follows. Live transfected cells cultured on poly(d-lysine)-coated glass coverslips (Hecht Assistent) were treated with either 100 nM rapamycin for rapid induction of protein dimerization and translocation or MT-targeting agents (10 µM nocodazole or 500 µM colchicine) during imaging. Live-cell imaging was conducted on a Nikon T1 inverted fluorescence microscope (Nikon) with a 60× oil objective (Nikon), a Prime camera (Photometrics), and 37° C., 5% CO2 heat stage (Live Cell Instrument). Rapid recruitment of proteins of interest (POIs) was imaged at 5- or 10-sec intervals, whereas the process of MT disruption was imaged at 1-min intervals. Images were obtained using Nikon NIS-Elements AR software and processed with Huygens Deconvolution Software (Scientific Volume Imaging). Image analysis was mainly performed with Nikon NIS-Elements AR software.
The procedures of measurement of MT filament area are as follows. The MT filaments in living cells were labeled with EMTB-CFP-FRB and imaged in real time (RAW image). The rolling ball correction was used to remove the cytosol background from the RAW images, which was carried out with the Nikon NIS-Elements AR software. Images were processed to generate the binary MT filament pattern via the Otsu threshold and analyzed by Fiji software.
FIGS. 2D and 2E show rapidly recruiting engineered spastins onto MTs. […] The top three layers are cells that simultaneously express EMTB-CFP-FRB and dNSpastin3Q-YFP-FKBP. The lower three layers are cells that simultaneously express EMTB-CFP-FRB and dNSpastin-YFP-FKBP-C2Lact. The color bar on the right indicates the brightness value represented by the color of the FRET signal. […] Data are shown as the mean ± S.E.M. It was noteworthy that MT disruption triggered by dNSpastin3Q-YFP-FKBP upon rapamycin treatment (T½ = 11.05 ± 1.52 min) was much faster than that of dNSpastin-YFP-FKBP-C2Lact upon rapamycin treatment (T½ = 53.08 ± 8.08 min), and treatment of two common MTAs, nocodazole (10 µM; T½ = 54.02 ± 10.29 min), colchicine (500 µM; T½ = 94.28 ± 8.63 min; see FIGS. 2F to 2J). […] In FIG. 2H, HeLa cells transfected with the indicated constructs were treated with nocodazole (Noc)([…], a type of MTA), colchicine (Col)(500 µM, a type of MTA), or rapamycin (Rapa)(100 nM); scale bar, 10 µm. […] Data are shown as the mean ± S.E.M. Student’s t-tests were performed, with the resulting p-values indicated.

[2] = system: intracellular microtubules in HeLa cells; experiment: as above; format: cell-based; conditions: nocodazole 3.3 µM

COC(=O)Nc1nc2ccc(C(=O)c3cccs3)cc2[nH]1 [nocodazole]
microtubules removed within one hour ([1]; 3.3 µM nocodazole): 31% | T½ of MT disruption ([1]; nocodazole 10 µM, HeLa cells): 54.02 ± 10.29 min | time required to disrupt half of the intracellular microtubules [2]: 106.86 ± 12.11 min
